This test relates to Mycosphaerella graminicola; Anamorph: Septoria tritici; Bayer Code SEPTTR. The test is described as follows: Leaf blotch of wheat, foliar fungicide treatment, one day protectant (1DP) or three day curative (3DC). The format is in vivo, Septoria tritici on wheat plants (variety Yuma). To be noted: Zymoseptoria tritici, rating of percent disease control.
[1] abbreviates: 24 h, one day protectant (1DP), read-out: SETTTR 1DP 25 ppm.
Setting [2] is: 24 h, one day protectant (1DP), read-out: SEPTTR 1DP 100 ppm.
Setting [3] is: 72 h, three day curative (3DC), read-out: SEPTTR 3DC 25 ppm.
[4] abbreviates: 72 h, three day curative (3DC), read-out: SEPTTR 3DC 100 ppm.

SMILES strings stand for the structures. Read-outs that look alike come from different tables or passages of the source.

Turning to `O=C(Cc1ccccc1)Nc1nc(OCc2ccc(F)cc2)ncc1F` [Compound 394], the pest or weed control at 25 ppm is, setting by setting: under setting [1], 76 to 100%; under setting [3], 76 to 100%. In addition, the pest or weed control at 100 ppm is, setting by setting: under setting [2], 76 to 100%; under setting [4], 76 to 100%.
In the case of `CN(N)c1nc(OCc2ccccc2)ncc1F` [Compound 395], the pest or weed control at 25 ppm was in the range of 0 to 25% under setting [1] and 26 to 50% under setting [3]. Also, the pest or weed control at 100 ppm fell in the range of 0 to 25% under setting [2] and 51 to 75% under setting [4].
With `Cn1nc(COc2ncc(F)c(N)n2)c2ccccc21` [Compound 396], the pest or weed control at 25 ppm is, setting by setting: under setting [1], 76 to 100%; under setting [3], 76 to 100%. The pest or weed control at 100 ppm runs as follows: under setting [2], 76 to 100%; under setting [4], 76 to 100%.
For the compound `CNN(C)c1nc(OCc2ccc(F)cc2)ncc1F` [Compound 397], the pest or weed control at 25 ppm is 0 to 25% under setting [1] and 0 to 25% under setting [3]. For the same compound, the pest or weed control at 100 ppm was in the range of 0 to 25% under setting [2] and 0 to 25% under setting [4].
With `Cc1ccc(COc2ncc(F)c(NC(=O)NCc3ccccc3F)n2)cc1` [Compound 398], the pest or weed control at 25 ppm fell in the range of 0 to 25% under setting [1] and 0 to 25% under setting [3]. The pest or weed control at 100 ppm was 0 to 25% under setting [2] and 26 to 50% under setting [4].
Regarding `Cc1c(N)cccc1COc1ncc(F)c(N)n1` [Compound 399], the pest or weed control at 25 ppm reads like this: under setting [1], 51 to 75%; under setting [3], 76 to 100%. Further, the pest or weed control at 100 ppm by setting is: under setting [2], 76 to 100%; under setting [4], 76 to 100%.
As to `CCOc1ccc(COc2ncc(F)c(N)n2)cc1` [Compound 400], the pest or weed control at 25 ppm is, setting by setting: under setting [1], 76 to 100%; under setting [3], 76 to 100%. Besides, the pest or weed control at 100 ppm runs as follows: under setting [2], 76 to 100%; under setting [4], 76 to 100%.
Take `Nc1nc(OCc2ccnc3ccccc23)ncc1F` [Compound 401]: the pest or weed control at 25 ppm runs as follows: under setting [1], 76 to 100%; under setting [3], 76 to 100%. The pest or weed control at 100 ppm by setting is: under setting [2], 76 to 100%; under setting [4], 76 to 100%.
On to `Cc1ccc(COc2ncc(F)c(/N=C/N3CCOCC3)n2)cc1` [Compound 402], for which the pest or weed control at 25 ppm is, setting by setting: under setting [1], 76 to 100%; under setting [3], 76 to 100%. Besides, the pest or weed control at 100 ppm fell in the range of 76 to 100% under setting [2] and 76 to 100% under setting [4].
With `CCC(C)C(Oc1ncc(F)c(N)n1)c1ccc(F)cc1` (stereo not drawn) [Compound 403], the pest or weed control at 25 ppm under setting [1] is 76 to 100% and the pest or weed control at 25 ppm under setting [3] fell in the range of 26 to 50%. Further, the pest or weed control at 100 ppm by setting is: under setting [2], 76 to 100%; under setting [4], 76 to 100%.
Regarding `Nc1nc(OCc2cc(Cl)cc(Cl)c2)ncc1F` [Compound 404], the pest or weed control at 25 ppm lay within 76 to 100% under setting [1] and 76 to 100% under setting [3]. Besides, the pest or weed control at 100 ppm by setting is: under setting [2], 76 to 100%; under setting [4], 76 to 100%.
Take `COc1ccccc1COc1ncc(F)c(/N=C/N(C)C)n1` [Compound 405]: the pest or weed control at 25 ppm is, setting by setting: under setting [1], 76 to 100%; under setting [3], 76 to 100%. Further, the pest or weed control at 100 ppm under setting [2] was in the range of 76 to 100% and the pest or weed control at 100 ppm under setting [4] was in the range of 76 to 100%.
`Nc1nc(OC(c2ccccc2)c2ccc(F)cc2)ncc1F` (stereo not drawn) [Compound 406]: the pest or weed control at 25 ppm by setting is: under setting [1], 76 to 100%; under setting [3], 76 to 100%. Further, the pest or weed control at 100 ppm is, setting by setting: under setting [2], 76 to 100%; under setting [4], 76 to 100%.
Turning to `COc1cccc(COc2ncc(F)c(N3CCCCC3)n2)c1` [Compound 407], the pest or weed control at 25 ppm lay within 0 to 25% under setting [1] and 0 to 25% under setting [3]. For the same compound, the pest or weed control at 100 ppm fell in the range of 0 to 25% under setting [2] and 0 to 25% under setting [4].
For `Nc1nc(OCc2ccco2)ncc1F` [Compound 409], the pest or weed control at 25 ppm lay in the range of 76 to 100% under setting [1] and 76 to 100% under setting [3]. Moreover, the pest or weed control at 100 ppm by setting is: under setting [2], 76 to 100%; under setting [4], 76 to 100%.
Turning to `Cn1ccc(COc2ncc(F)c(NCOCc3ccccc3)n2)n1` [Compound 412], the pest or weed control at 25 ppm by setting is: under setting [1], 0 to 25%; under setting [3], 0 to 25%. Further, the pest or weed control at 100 ppm runs as follows: under setting [2], 76 to 100%; under setting [4], 51 to 75%.
As for `Nc1nc(OC(=O)c2ccccc2)ncc1F` [Compound 413], the pest or weed control at 25 ppm under setting [1] was in the range of 76 to 100% and the pest or weed control at 25 ppm under setting [3] fell in the range of 76 to 100%. Besides, the pest or weed control at 100 ppm under setting [2] lay within 76 to 100% and the pest or weed control at 100 ppm under setting [4] lay within 76 to 100%.
Consider `COc1ccccc1COc1ncc(F)c(NC(=O)OCc2ccccc2)n1` [Compound 415], for which the pest or weed control at 25 ppm under setting [1] lay within 51 to 75% and the pest or weed control at 25 ppm under setting [3] lay in the range of 76 to 100%. Moreover, the pest or weed control at 100 ppm was in the range of 76 to 100% under setting [2] and 76 to 100% under setting [4].
For the compound `COc1cccc(COc2ncc(F)c(NCc3ccccc3F)n2)c1` [Compound 416], the pest or weed control at 25 ppm runs as follows: under setting [1], 0 to 25%; under setting [3], 0 to 25%. The pest or weed control at 100 ppm under setting [2] was 0 to 25% and the pest or weed control at 100 ppm under setting [4] is 26 to 50%.
For the compound `CN(C)/C=N/c1nc(OC(=O)C2CC2)ncc1F` [Compound 417], the pest or weed control at 25 ppm lay within 76 to 100% under setting [1] and 76 to 100% under setting [3]. In addition, the pest or weed control at 100 ppm lay in the range of 76 to 100% under setting [2] and 76 to 100% under setting [4].
As for `COCCOC(=O)Nc1nc(OCc2ccc(C)cc2)ncc1F` [Compound 419], the pest or weed control at 25 ppm was 76 to 100% under setting [1] and 76 to 100% under setting [3]. The pest or weed control at 100 ppm was 76 to 100% under setting [2] and 76 to 100% under setting [4].
As for `CC(C)C(=O)Oc1ncc(F)c(/N=C/N(C)C)n1` [Compound 420], the pest or weed control at 25 ppm is, setting by setting: under setting [1], 76 to 100%; under setting [3], 76 to 100%. The pest or weed control at 100 ppm reads like this: under setting [2], 76 to 100%; under setting [4], 76 to 100%.
`CN1CCCC/C1=N\c1nc(OCc2ccccc2)ncc1F` [Compound 421]: the pest or weed control at 25 ppm by setting is: under setting [1], 76 to 100%; under setting [3], 76 to 100%. The pest or weed control at 100 ppm was in the range of 76 to 100% under setting [2] and 76 to 100% under setting [4].
Regarding `Cc1ccc(C(=O)Oc2ncc(F)c(/N=C/N(C)C)n2)c(C)c1` [Compound 422], the pest or weed control at 25 ppm was in the range of 76 to 100% under setting [1] and 76 to 100% under setting [3]. Moreover, the pest or weed control at 100 ppm lay within 76 to 100% under setting [2] and 76 to 100% under setting [4].
Consider `Nc1nc(OCc2cccc(O)c2)ncc1F` [Compound 423], for which the pest or weed control at 25 ppm runs as follows: under setting [1], 0 to 25%; under setting [3], 0 to 25%. Also, the pest or weed control at 100 ppm runs as follows: under setting [2], 0 to 25%; under setting [4], 0 to 25%.
With `CC(Oc1ncc(F)c(/N=C2\CCCCN2C)n1)c1ccc(F)cc1` (stereo not drawn) [Compound 424], the pest or weed control at 25 ppm fell in the range of 51 to 75% under setting [1] and 51 to 75% under setting [3]. In addition, the pest or weed control at 100 ppm lay within 76 to 100% under setting [2] and 76 to 100% under setting [4].
Take `CN(C)/C=N/c1nc(OC(=O)Oc2cccc(C(F)(F)F)c2)ncc1F` [Compound 425]: the pest or weed control at 25 ppm by setting is: under setting [1], 76 to 100%; under setting [3], 76 to 100%. Besides, the pest or weed control at 100 ppm under setting [2] is 76 to 100% and the pest or weed control at 100 ppm under setting [4] was 76 to 100%.
Regarding `C/C(=N\Oc1ncc(F)c(/N=C/N(C)C)n1)c1ccccc1` [Compound 427], the pest or weed control at 25 ppm lay within 76 to 100% under setting [1] and 76 to 100% under setting [3]. In addition, the pest or weed control at 100 ppm runs as follows: under setting [2], 76 to 100%; under setting [4], 76 to 100%.
In the case of `Nc1nc(OC(=O)c2snc(Cl)c2Cl)ncc1F` [Compound 428], the pest or weed control at 25 ppm runs as follows: under setting [1], 51 to 75%; under setting [3], 26 to 50%. In addition, the pest or weed control at 100 ppm runs as follows: under setting [2], 51 to 75%; under setting [4], 76 to 100%.
In the case of `Nc1nc(OCc2cnc(Cl)s2)ncc1F` [Compound 429], the pest or weed control at 25 ppm by setting is: under setting [1], 76 to 100%; under setting [3], 76 to 100%. Moreover, the pest or weed control at 100 ppm is 76 to 100% under setting [2] and 76 to 100% under setting [4].
Regarding `Nc1cccc(COc2ncc(F)c(N)n2)c1` [Compound 430], the pest or weed control at 25 ppm is 76 to 100% under setting [1] and 76 to 100% under setting [3]. The pest or weed control at 100 ppm under setting [2] was in the range of 76 to 100% and the pest or weed control at 100 ppm under setting [4] was in the range of 76 to 100%.
For `Cc1cc(COc2ncc(F)c(N)n2)nn1C` [Compound 431], the pest or weed control at 25 ppm reads like this: under setting [1], 76 to 100%; under setting [3], 76 to 100%. The pest or weed control at 100 ppm under setting [2] fell in the range of 76 to 100% and the pest or weed control at 100 ppm under setting [4] was 76 to 100%.
For `CC1(COc2ncc(F)c(N)n2)COC1` [Compound 433], the pest or weed control at 25 ppm lay in the range of 0 to 25% under setting [1] and 0 to 25% under setting [3]. Moreover, the pest or weed control at 100 ppm under setting [2] lay in the range of 0 to 25% and the pest or weed control at 100 ppm under setting [4] fell in the range of 0 to 25%.
On to `CC[Si](CC)(CC)Nc1nc(OCc2ccn(C)n2)ncc1F` [Compound 434], for which the pest or weed control at 25 ppm lay within 76 to 100% under setting [1] and 76 to 100% under setting [3]. Further, the pest or weed control at 100 ppm under setting [2] is 76 to 100% and the pest or weed control at 100 ppm under setting [4] lay in the range of 76 to 100%.
Turning to `O=C(Nc1nc(OCc2ccccc2)ncc1F)c1ccccc1` [Compound 435], the pest or weed control at 25 ppm runs as follows: under setting [1], 76 to 100%; under setting [3], 51 to 75%. In addition, the pest or weed control at 100 ppm fell in the range of 76 to 100% under setting [2] and 76 to 100% under setting [4].
On to `N#Cc1cc(COc2ncc(F)c(N)n2)ccn1` [Compound 437], for which the pest or weed control at 25 ppm runs as follows: under setting [1], 0 to 25%; under setting [3], 0 to 25%. The pest or weed control at 100 ppm lay in the range of 51 to 75% under setting [2] and 51 to 75% under setting [4].

(Values after patent publication US9204653B2, “5-fluoro pyrimidine derivatives” (DOW AGROSCIENCES LLC, priority 2008, dated 2015).)
